From PubChem BioAssay (NCI)
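Exposure lasted 48 hours, with cells grown in 96-well plates and compounds tested at five concentrations. The concentration for 50% growth inhibition is given as GI50. TGI is the concentration that stops growth completely.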

Key:
Assay in all cases: NCI-60 cell line screen, 48 h
HS 578T breast = tested on: HS 578T breast
DU-145 prostate = tested on: DU-145 prostate
RPMI-8226 leukemia = tested on: RPMI-8226 leukemia
HOP-92 NSCLC = tested on: HOP-92 NSCLC
MOLT-4 leukemia = tested on: MOLT-4 leukemia
NCI-H460 lung = tested on: NCI-H460 lung
ACHN renal = tested on: ACHN renal
PC-3 prostate = tested on: PC-3 prostate
HL-60(TB) leukemia = tested on: HL-60(TB) leukemia
786-0 renal = tested on: 786-0 renal
SNB-75 CNS = tested on: SNB-75 CNS
SK-MEL-28 melanoma = tested on: SK-MEL-28 melanoma
HCT-116 colon = tested on: HCT-116 colon
K-562 leukemia = tested on: K-562 leukemia
TK-10 renal = tested on: TK-10 renal
UACC-257 melanoma = tested on: UACC-257 melanoma
HT29 colon = tested on: HT29 colon
SR leukemia = tested on: SR leukemia
A549 NSCLC = tested on: A549 NSCLC
OVCAR-3 ovarian = tested on: OVCAR-3 ovarian
MCF7 breast = tested on: MCF7 breast
IGROV1 ovarian = tested on: IGROV1 ovarian
HCT-15 colon = tested on: HCT-15 colon
BT-549 breast = tested on: BT-549 breast
M14 melanoma = tested on: M14 melanoma
T-47D breast = tested on: T-47D breast
SW-620 colon = tested on: SW-620 colon
RXF 393 renal = tested on: RXF 393 renal
KM12 colon = tested on: KM12 colon
CCRF-CEM leukemia = tested on: CCRF-CEM leukemia
SK-MEL-2 melanoma = tested on: SK-MEL-2 melanoma
EKVX NSCLC = tested on: EKVX NSCLC
NCI-H226 lung = tested on: NCI-H226 lung
OVCAR-8 ovarian = tested on: OVCAR-8 ovarian
MDA-MB-231 breast = tested on: MDA-MB-231 breast
MDA-MB-435 = tested on: MDA-MB-435
NCI-H522 lung = tested on: NCI-H522 lung
SK-MEL-5 melanoma = tested on: SK-MEL-5 melanoma
U251 CNS = tested on: U251 CNS
HCC-2998 colon = tested on: HCC-2998 colon
UO-31 renal = tested on: UO-31 renal
NCI/ADR-RES ovarian = tested on: NCI/ADR-RES ovarian
OVCAR-4 ovarian = tested on: OVCAR-4 ovarian
SF-539 CNS = tested on: SF-539 CNS
HOP-62 NSCLC = tested on: HOP-62 NSCLC
SF-268 CNS = tested on: SF-268 CNS
NCI-H23 lung = tested on: NCI-H23 lung
SNB-19 CNS = tested on: SNB-19 CNS
MALME-3M melanoma = tested on: MALME-3M melanoma
CAKI-1 renal = tested on: CAKI-1 renal
SF-295 CNS = tested on: SF-295 CNS
SN12C renal = tested on: SN12C renal
A498 renal = tested on: A498 renal
COLO 205 colon = tested on: COLO 205 colon
OVCAR-5 ovarian = tested on: OVCAR-5 ovarian
SK-OV-3 ovarian = tested on: SK-OV-3 ovarian
LOX IMVI melanoma = tested on: LOX IMVI melanoma
UACC-62 melanoma = tested on: UACC-62 melanoma

## Cc1nn(-c2ccccc2)c2ncnc(N/N=C/c3ccccc3O)c12
HS 578T breast
  GI50: 1830 nM
  TGI: > 100000 nM
DU-145 prostate
  GI50: 318 nM
  TGI: > 100000 nM
RPMI-8226 leukemia
  GI50: 394 nM
  TGI: 33200 nM
HOP-92 NSCLC
  GI50: 455 nM
  TGI: 6750 nM
MOLT-4 leukemia
  GI50: 280 nM
  TGI: > 59000 nM
NCI-H460 lung
  GI50: 382 nM
  TGI: > 78400 nM
ACHN renal
  GI50: 283 nM
  TGI: 40400 nM
PC-3 prostate
  GI50: 345 nM
  TGI: > 49700 nM
HL-60(TB) leukemia
  GI50: 370 nM
  TGI: > 100000 nM
786-0 renal
  GI50: 396 nM
  TGI: 27700 nM
SNB-75 CNS
  GI50: 267 nM
  TGI: 2990 nM
SK-MEL-28 melanoma
  GI50: 481 nM
  TGI: > 100000 nM
HCT-116 colon
  GI50: 422 nM
  TGI: 27300 nM
K-562 leukemia
  GI50: 397 nM
  TGI: > 100000 nM
TK-10 renal
  GI50: 2970 nM
  TGI: > 70600 nM
UACC-257 melanoma
  GI50: 1810 nM
  TGI: 31100 nM
HT29 colon
  GI50: 1120 nM
  TGI: > 50000 nM
SR leukemia
  GI50: 232 nM
  TGI: > 100000 nM
A549 NSCLC
  GI50: 936 nM
  TGI: > 41900 nM
OVCAR-3 ovarian
  GI50: 306 nM
  TGI: 46300 nM
MCF7 breast
  GI50: 353 nM
  TGI: 12500 nM
IGROV1 ovarian
  GI50: 597 nM
  TGI: 16500 nM
HCT-15 colon
  GI50: 266 nM
  TGI: 17500 nM
BT-549 breast
  GI50: 996 nM
  TGI: 41900 nM
M14 melanoma
  GI50: 270 nM
  TGI: 1640 nM
T-47D breast
  GI50: 1920 nM
  TGI: 13700 nM
SW-620 colon
  GI50: 537 nM
  TGI: > 96000 nM
RXF 393 renal
  GI50: 882 nM
  TGI: 9110 nM
KM12 colon
  GI50: 382 nM
  TGI: > 100000 nM
CCRF-CEM leukemia
  GI50: 140 nM
  TGI: > 100000 nM
SK-MEL-2 melanoma
  GI50: 633 nM
  TGI: 47100 nM
EKVX NSCLC
  GI50: 391 nM
  TGI: > 43300 nM
NCI-H226 lung
  GI50: 2550 nM
  TGI: 8590 nM
OVCAR-8 ovarian
  GI50: 354 nM
  TGI: > 100000 nM
MDA-MB-231 breast
  GI50: 529 nM
  TGI: 53300 nM
MDA-MB-435
  GI50: 544 nM
  TGI: > 100000 nM
NCI-H522 lung
  GI50: 416 nM
  TGI: 44900 nM
SK-MEL-5 melanoma
  GI50: 621 nM
  TGI: 4720 nM
U251 CNS
  GI50: 425 nM
  TGI: > 49500 nM
HCC-2998 colon
  GI50: 793 nM
  TGI: 35200 nM
UO-31 renal
  GI50: 325 nM
  TGI: 2850 nM
NCI/ADR-RES ovarian
  GI50: 331 nM
  TGI: 8540 nM
OVCAR-4 ovarian
  GI50: 303 nM
  TGI: > 54300 nM
SF-539 CNS
  GI50: 396 nM
  TGI: 7130 nM
HOP-62 NSCLC
  GI50: 288 nM
  TGI: 6230 nM
SF-268 CNS
  GI50: 300 nM
  TGI: > 100000 nM
NCI-H23 lung
  GI50: 509 nM
  TGI: 25500 nM
SNB-19 CNS
  GI50: 507 nM
  TGI: > 100000 nM
MALME-3M melanoma
  GI50: 505 nM
  TGI: 11800 nM
CAKI-1 renal
  GI50: 943 nM
  TGI: 8860 nM
SF-295 CNS
  GI50: 407 nM
  TGI: 11700 nM
SN12C renal
  GI50: 520 nM
  TGI: > 49600 nM
A498 renal
  GI50: 2820 nM
  TGI: 11200 nM
COLO 205 colon
  GI50: 385 nM
  TGI: 22900 nM
OVCAR-5 ovarian
  GI50: 3850 nM
  TGI: > 100000 nM
SK-OV-3 ovarian
  GI50: 465 nM
  TGI: 4720 nM
LOX IMVI melanoma
  GI50: 317 nM
  TGI: 5730 nM
UACC-62 melanoma
  GI50: 2010 nM
  TGI: 12100 nM
